Results published in publication PMC7747594, “Protease-activated receptor-2 ligands reveal orthosteric and allosteric mechanisms of receptor inhibition” (Communications Biology, 2020).
Where “and” joins values, the source holds several entries; their conditions need not be identical. Equal values may be shown once.

What was measured:
hPAR2 = molecular target: T1, hPAR2 (Homo sapiens, UniProt P55085); test: Schild and allosteric model analysis of Ca^2+ mobilisation in CHO-hPAR2 cells (2f-LIGRL-NH2 or trypsin); format: cell-based; settings: for linear Schild regression slope: Figure R1; for logα / logβ: operational model of allosterism
T1 sequence (P55085 26-397): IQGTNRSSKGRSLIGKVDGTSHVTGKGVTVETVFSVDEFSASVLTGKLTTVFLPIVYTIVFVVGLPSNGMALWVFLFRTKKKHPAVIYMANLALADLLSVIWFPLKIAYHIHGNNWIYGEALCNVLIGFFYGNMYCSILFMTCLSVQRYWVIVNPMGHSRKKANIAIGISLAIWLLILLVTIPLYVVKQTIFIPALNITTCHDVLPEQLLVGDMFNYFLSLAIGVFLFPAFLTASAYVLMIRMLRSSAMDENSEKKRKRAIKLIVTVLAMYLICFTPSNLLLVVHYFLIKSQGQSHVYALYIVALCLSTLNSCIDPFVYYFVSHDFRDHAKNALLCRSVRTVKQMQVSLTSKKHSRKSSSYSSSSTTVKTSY
Method: Cells were loaded with Fluo-8 NW calcium dye (AAT Bioquest) for 30 min at 37 °C before compounds in Hank’s balanced salt solution (HBSS, ThermoFisher Scientific) with 20 mM HEPES (ThermoFisher Scientific), 0.1% bovine serum albumin (BSA, Sigma) and 0.5% DMSO were added and simultaneously evaluated for changes in intracellular [Ca^2+] using FLIPR TETRA (Molecular Devices) to detect agonism. For each concentration, the difference between the maximum peak Ca^2+ response and baseline response is reported. […] Antagonism experiments were also carried out on 1321N1-PAR2[WT], 1321N1-PAR2[F154A], and 1321N1-PAR2[G157C] as described. Experiments with trypsin in 1321N1-hPAR2 cells were performed in the presence of 1 µM Vorapaxar (Chemtronica) to remove any interference of PAR1 activity. […] Antagonism experiments for CHO-hPAR2 and HT-29 cells were performed in 96-well plates at 30,000 cells/well. Cells were loaded with Fluo-3 AM calcium dye (Sigma-Aldrich) for 60 min at 37 °C in HBSS with 1% FBS, 0.2% pluronic acid, 20 mM HEPES and 2.5 mM probenecid prior to the addition of antagonist. The antagonist was pre-incubated for 60 min at 37 °C followed by the addition of bovine trypsin (30 nM) at EC80. Intracellular [Ca^2+] flux was measured using FLIPR TETRA (Molecular Devices) and the difference between the maximum peak Ca^2+ response and baseline response is reported.
Binding data were analysed using the One site – Fit Ki model in GraphPad Prism 8 (GraphPad Software) to determine binding affinity. Pharmacology in vitro potency data was analysed with a 4-parameter logistic fit using the equation y = Bottom + (Top − Bottom)/[…] where y is the response, x is the 10-logarithm of the drug concentration, Bottom is no response and Top is full response in GraphPad Prism 8 or Genedata Screener (Genedata). pEC50 and pIC50 data are presented as mean ± standard error of the mean (s.e.m.) derived from the number of independent experiments stated. Schild slope analysis was calculated using Graphpad Prism 8 Gaddum/Schild EC50 global fitting (shared model parameters between all data sets) competitive model. […] Schild slope quantifies the shifts in agonist response in the presence of antagonist, a Schild slope of 1 indicates the antagonist is competitive and extra-sum-of-squares F-test (p < 0.05) was used to compare the calculated Schild slope against a hypothetical Schild slope of 1. […] The relative activity was calculated using (EmaxEC50’)/(Emax’EC50) with the Hill slope help constant at 1. EC50’ and Emax’ denote the EC50 and Emax in the absence of allosteric modulator, while EC50 and Emax denote those measured in the presence of allosteric modulator. When the Hill slope = 1, the relative activity plot approaches an asymptote corresponding to the estimate of the γ value.

PAR2 = molecular target: T2, PAR2 (Rattus norvegicus, UniProt Q63645); test: PAR2 agonist (2f-LIGRLO-NH2)-induced rat paw oedema, paw swelling; format: in vivo; settings: for reduction of paw swelling: Wistar rats; for % swelling: 2f-induced rat paw oedema, individual animals (Figure 5a); for paw swelling: AZ3451 10 mg kg^−1 s.c. 30 min before, AZ8838 10 mg kg^−1 p.o. 2 h before 2f-LIGRLO-NH2; for anti-inflammatory activity in vivo after oral delivery / anti-inflammatory activity in vivo after subcutaneous injection: rat paw oedema
T2 construct: from tissue; host or cells: hind paw of male Wistar rats, in vivo
T2 sequence (Q63645 26-397): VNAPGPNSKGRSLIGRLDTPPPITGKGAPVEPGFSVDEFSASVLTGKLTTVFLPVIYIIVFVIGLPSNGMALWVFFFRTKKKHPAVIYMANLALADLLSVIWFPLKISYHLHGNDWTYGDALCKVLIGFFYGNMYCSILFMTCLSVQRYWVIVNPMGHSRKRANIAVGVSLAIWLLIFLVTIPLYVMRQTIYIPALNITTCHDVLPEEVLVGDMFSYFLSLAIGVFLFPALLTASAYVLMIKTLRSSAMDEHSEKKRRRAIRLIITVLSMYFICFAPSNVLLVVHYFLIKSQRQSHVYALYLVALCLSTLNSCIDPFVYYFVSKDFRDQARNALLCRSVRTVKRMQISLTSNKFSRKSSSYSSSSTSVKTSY
Method: Following Australian ethical standards, animals were air transported to the Institute for Bioengineering and Nanotechnology (University of Queensland, Australia). Animals were housed at room temperature and kept in 12 h light/dark cycles, with standard chow and water provided ad libitum, for at least a 48 h acclimatisation period before experiments. […] Saline only was given to sham paws. […] Control animals received either DMSO s.c. or 20% DMSO/80% olive oil via oral gavage. […] At the 30 min time point, a portion of animals was euthanised by CO2 inhalation and their paws collected for further analyses. All in vivo experimental procedures and animal handling were conducted with approval from the Animal Ethics Committee at the University of Queensland which follows NHMRC and ARRIVE guidelines. After experimentation, animals are humanely euthanized by CO2 inhalation as stipulated by the ethical agreements.
Experimental results were expressed as mean ± s.e.m. Graphs were plotted and data analysed using GraphPad Prism7. Statistical differences were assessed using Student’s t-tests (two-tailed) for data sets of two, one-way ANOVA for data sets of three or more with Bonferroni post-hoc tests, or two-way repeated-measures ANOVA with Tukey post-hoc tests for temporal data sets, as appropriate. Significance was set at ^+p < 0.05, ^++p < 0.01, ^+++p < 0.001, ^++++p < 0.0001 compared to sham, and *p < 0.05, **p < 0.01, ***p < 0.001, ****p < 0.0001 compared to disease control.

[1] = against 2f-LIGRL-NH2, Gaddum/Schild EC50 global fitting, CHO-hPAR2 cells
[2] = against trypsin, Gaddum/Schild EC50 global fitting, CHO-hPAR2 cells
[3] = 2f-LIGRL-NH2, Ca^2+ mobilisation

| γ value estimated from relative activity (hPAR2; 2f-LIGRL-NH2) | logα (hPAR2; [3]) | logβ (hPAR2; [3]) | logα (hPAR2; trypsin, Ca^2+ mobilisation) | logβ (hPAR2; trypsin, Ca^2+ mobilisation) | γ value estimated from relative activity (hPAR2; trypsin) | reduction of paw swelling (PAR2; 10 mg kg^−1 s.c. 30 min prior to 2f-LIGRLO-NH2 350 µg per paw) | Structure (SMILES) | linear Schild regression slope (hPAR2; 2f-LIGRL-NH2, CHO-hPAR2 cells) | Schild slope (hPAR2; [1]) | Schild slope (hPAR2; [2]) | linear Schild regression slope (hPAR2; trypsin, CHO-hPAR2 cells) | % swelling (PAR2; Time 0 h) | % swelling (PAR2; Time 0.5 h) | % swelling (PAR2; Time 1 h) | % swelling (PAR2; Time 2 h) | % swelling (PAR2; Time 4 h) | paw swelling (PAR2) | anti-inflammatory activity in vivo after oral delivery (PAR2) | anti-inflammatory activity in vivo after subcutaneous injection (PAR2) | reduction of paw swelling (PAR2; 10 mg kg^−1 p.o. 2 h prior to 2f-LIGRLO-NH2 350 µg per paw) |
| --- | --- | --- | --- | --- | --- | --- | --- | --- | --- | --- | --- | --- | --- | --- | --- | --- | --- | --- | --- | --- |
| 0.002 | −1.98 ± 0.11 | −0.28 ± 0.07 | −1.19 ± 0.07 | −0.66 ± 0.08 | 0.09 | 60% | C[C@@H](C1CCCCC1)n1c(-c2cc3c(cc2Br)OCO3)nc2cc(C(=O)Nc3ccc(C#N)cc3)ccc21 [AZ3451] | 0.4 | 0.4 | 0.3 | 0.2 | 0% | 48.3188% and 41.0115% and 38.4554% and 0.2044% | 31.4446% and 1.303% and 21.2807% and 5.312% | 1.7017% and 2.985% and 4.564% and -2.962% | 3.1932% and 1.708% and -5.029% and 2.557% | significantly reduced paw swelling | not after oral delivery | active in vivo | – |
| – | – | – | – | – | – | – | CCCc1cc(F)ccc1C(O)c1ncc[nH]1 (centres unmarked) [AZ8838] | 1.0 | 1.1 | 0.9 | 0.8 | 0% | 24.8579% and 43.6327% and 41.4698% and 6.42% | 17.7725% and 33.5029% and 21.2259% and 5.253% | -0.8821% and 11.1837% and 14.1177% and -4.556% | -4.225% and 3.626% and 12.7121% and -4.201% | significantly reduced paw swelling | anti-inflammatory in vivo | anti-inflammatory in vivo | 60% |
